Measurements as given in ChEMBL document CHEMBL3301461, “MMV Malaria Box thermal shift screening” (2015).

How the values were obtained:
Plasmodium falciparum = experiment: (§1) MMV: Thermal shift assay for identifying inhibitors; settings: 3D7
Leishmania donovani = experiment: as §1

O=C(Nc1ccccc1O)c1ccc(Oc2cccc(C(=O)Nc3ccccc3O)c2)cc1
ΔTm (Plasmodium falciparum): 2.2 °C

O=c1cc(NC2CCN(CCCc3ccccc3)CC2)c2cc(Cl)ccc2o1
ΔTm (Plasmodium falciparum): 3.1 °C

O=C(NC1CCN(Cc2ccccc2)CC1)c1cc(-c2cccnc2)nc2ccc(Cl)cc12
ΔTm (Leishmania donovani): 2.4 °C

COc1ccc(C(=O)NC(c2ccc(Cl)cc2Cl)c2cc(Cl)c3cccnc3c2O)cc1 (centres undefined)
ΔTm (Leishmania donovani): 2.4 °C

CC1CCN(Cc2ccc(NC(=O)c3cc4ccc5cccnc5c4[nH]3)cc2)CC1
ΔTm (Plasmodium falciparum): 2.2 °C

CCC(O)c1ccc(Br)cc1NC(=O)c1cccc(Cl)c1 (centres undefined)
ΔTm (Plasmodium falciparum): 2 °C

CCN(Cc1ccccc1)C1CCN(Cc2cc(Br)ccc2O)CC1
ΔTm (Plasmodium falciparum): 12.4 °C

O=C(NC1CCN(Cc2ccccc2)CC1)c1cc(-c2ccncc2)nc2ccc(Cl)cc12
ΔTm (Plasmodium falciparum): 3 °C

CCOc1cccc(C(=O)Nc2ccc(-c3nc4ccccc4[nH]3)cc2)c1
ΔTm (Plasmodium falciparum): 2.9 °C

FC(F)(F)c1cccc(Nc2nc(-c3ccccc3)nc3ncccc23)c1
ΔTm (Plasmodium falciparum): 3.7 °C

Cc1sc2ncnc(Sc3nc4ccccc4[nH]3)c2c1C
ΔTm (Plasmodium falciparum): 2.1 °C

CCN(CC)CCNc1ncnc2c1[nH]c1ccc(Cl)cc12
ΔTm (Plasmodium falciparum): 2.3 °C

COc1ccc(Nc2nc(NCc3ccccc3)c3ccccc3n2)cc1
ΔTm (Plasmodium falciparum): 2.4 °C

CCOc1cc2c(cc1OCC)C(c1cc(C)c(O)c(C)c1)NCC2 (centres undefined)
ΔTm (Leishmania donovani): 3.3 °C

Cc1ccc(Nc2nc(N)c3ccccc3n2)cc1Cl
ΔTm (Leishmania donovani): 4 °C

COc1ccc(C=C2SC(=N)N(c3ccccc3OC)C2=O)cc1
ΔTm (Plasmodium falciparum): 5.4 °C

CCOc1ccc(C2N(C)c3ccccc3N2C)cc1
ΔTm (Leishmania donovani): 2.5 °C

COc1cc(C(=O)Nc2ccc(-c3nc4ccccc4[nH]3)cc2)cc(OC)c1OC
ΔTm (Leishmania donovani): 4.8 °C

CCCN(CCC)CCCNC(=O)c1cc2c(-c3ccc(OC)c(OC)c3)nn(C)c2s1
ΔTm (Plasmodium falciparum): 2 °C

CCOC(=O)c1cnc2ccc(Cl)cc2c1NCCCN(C)C
ΔTm (Plasmodium falciparum): 3.1 °C

Cc1cccc(-n2ncc3c(O)nc(-n4nc(C)cc4NC(=O)c4cc5ccccc5o4)nc32)c1
ΔTm (Plasmodium falciparum): 12.7 °C

FC(F)(F)c1cccc(Nc2nc3ccccc3nc2Nc2cccc(C(F)(F)F)c2)c1
ΔTm (Plasmodium falciparum): 2.5 °C

CCN(CC)CCCNc1nc(-c2ccc(Cl)cc2)nc2ccccc12
ΔTm (Plasmodium falciparum): 4.1 °C

COc1ccc2c(c1)OC(O)(C(F)(F)C(F)(F)F)CC2=O (centres undefined)
ΔTm (Plasmodium falciparum): 7.5 °C

COc1cc2cc(C(=O)Nc3ccccc3)c(N)nc2cc1OC
ΔTm (Plasmodium falciparum): 2.7 °C

O=C(Nc1ccc(Br)cc1)Nc1cccc(Cl)c1
ΔTm (Plasmodium falciparum): 3.6 °C

CC(C)(C)C(=O)Nc1ccc(C(=O)Nc2cccc(-c3nc4ccccc4[nH]3)c2)cc1
ΔTm (Plasmodium falciparum): 2.3 °C

COc1cc(OC)cc(C(=O)Nc2ccc(-c3nc4ccccc4[nH]3)cc2)c1
ΔTm (Plasmodium falciparum): 2.6 °C

Cc1ccc(NC(=O)Nc2cccc(Cl)c2)cc1F
ΔTm (Plasmodium falciparum): 2.4 °C

COc1ccc(-c2cc(=O)oc3c4c(ccc23)OCN(Cc2ccc(F)cc2)C4)cc1
ΔTm (Plasmodium falciparum): 2.2 °C

COc1cccc(C(=O)Nc2ccc(-c3nc4ccccc4[nH]3)cc2)c1
ΔTm (Plasmodium falciparum): 2.5 °C

Cc1cc(C)cc(Nc2cc(C)nc3nc(C(F)(F)F)nn23)c1
ΔTm (Leishmania donovani): 2.2 °C

COc1cccc(Nc2nc(NCCO)c3ccccc3n2)c1
ΔTm (Plasmodium falciparum): 2 °C

CC1CCCCN1CCCNC(=O)c1ccc2c(c1)sc1nc(-c3ccc(F)cc3)cn12 (centres undefined)
ΔTm (Plasmodium falciparum): 2.4 °C
